Data set [1] relates to autophagy (LC3) in MDA-MB-231 and BT-20 cells. The data set can be described thus: Autophagy markers: LC3 western blot, LC3 puncta immunofluorescence, mCherry-GFP-LC3 flux. Type of data set: cell-based. The protocol: Sub-confluent cells were washed with PBS, lysed in RIPA buffer (50 mM Tris-HCl at pH7.5, 150 mM sodium chloride, 1% tritonX-100, 0.1% SDS, 2 mM EDTA and 25 mM sodium fluoride) supplemented with 1 mM PMSF and protease inhibitor cocktail (Roche) for 10 min on ice and centrifuged (13,000 rpm at 4° C. for 20 min) to separate cell lysate. Cell lysate (50 μg protein, as measured by the Bradford protein assay) was then added with SDS sample buffer (Tris at pH 6.8, 20% glycerol, 5% SDS, bromophenol blue and β-mercaptoethanol) and boiled for 5 min. Samples were then resolved through 13% SDS-PAGE gels, transferred to nitrocellulose membrane, blotted with specific first antibodies at different dilution in cold room overnight, and then amplified with horseradish peroxidase-conjugated secondary antibodies for 1 hour in room temperature and enhanced by chemiluminescence detection system.
Cells were grown on 18-mm cover glass, placed in 6-well culture plate for 24 hours, rinsed in PBS, fixed with 4% paraformaldehyde/PBS for 10 min, washed twice in PBS with 0.2% TritonX-100, blocked in PBS with 0.2% Triton X-100 containing 1% BSA (Bioshop) and incubated with primary antibodies overnight at 4° C. (all in 1/100 diluted in blocking solution). The cells were washed with PBS containing 0.2% TritonX-100 and subsequently incubated with Alexa Fluor 488-labelled, Alexa Fluor 594-labelled, or Alexa Fluor 647-labelled secondary antibodies (all were used at 1/500 dilution in blocking solution) for 1 hour in room temperature. The nuclei were stained with DAPI (0.1 μg/ml) for 5 min before mounted with aqueous mounting medium. Cells were imaged using WaveFX spinning disk confocal microscope system (Quorum Technologies INC.). Images shown are representative of three independent experiments.
In order to determine whether SLLN-15 affects autophagy in triple-negative breast cancer cells, we first investigated its effect on the formation of autophagosomes by detecting the conversion of LC3-I to lipidated LC3-II and the distribution of endogenous LC3 puncta, both classic markers of autophagy regulation (Klionsky D J et al. Guidelines for the use and interpretation of assays for monitoring autophagy (3rd edition) Autophagy 2016; 12:1-222). […] In order to visualize the induction of autophagy by SLLN-15, we then used transmission electron microscopy.
Distinguishing between autophagy inducers and inhibitors is a delicate task, since both cause a build-up of LC3-II and LC3-positive puncta (Mizushima N, et al. Methods in mammalian autophagy research Cell 2010; 140:313-26). Therefore, to further determine the role of SLLN-15 on autophagy, we next investigated its impact on autophagic flux using a tandem monomeric mCherry-GFP-tagged LC3. […] SLLN-15-induced autophagic flux was further examined in the presence or absence of the autophagosome-lysosome fusion inhibitor, chloroquine (CQ) (Mizushima N, et al. Methods in mammalian autophagy research Cell 2010; 140:313-26). […] This observation was further confirmed by detecting the number of LC3 puncta in SLLN-15-treated cells, as compared to SLLN-15 combined with CQ (FIG. 3D).

Another data set is described as follows: In vivo tolerability. To be noted: administered intraperitoneally. Further details: species or system mice. The source says:
(§1) Breast cancer stem-like cells (BCSCs), heterogeneously subsisting as CD24low/CD44high and ALDHhigh subpopulations, are enriched in aggressive breast cancer subtypes and believed to be responsible for driving metastatic colonization. Despite evidence of a clinical association between BCSC and poor prognosis, effective therapeutic means to target this cell population is lacking. We identified SLLN-15 as a compound with selective anti-sternness activity across a panel of cell lines expressing ALDHhigh and CD24low/CD44high markers, including MDA-MB-231, SUM-149PT, BT-20, SKBR3, 4T1 and several anaplastic thyroid cell lines. […] In summary, our data foster that targeting regulatory networks driving sternness represent important therapeutic targets for treating metastatic breast disease.

In data set [2] the test system is 4T1 cells (triple-negative breast carcinoma). Description: In vivo orthotopic allograft model of breast cancer. Further details: species or system BALB/c mice. The protocol:
All experiments were carried out according to protocol number 4101 of the McGill University Animal Care Committee. Mouse mammary carcinoma 4T1 cells (1×10^6 cells/each mouse) were transplanted into the mammary fat pad of BALB/c mice. […] Tumor size was measured using a caliper, and tumor volume was calculated as […] (length×width2). Mice were sacrificed 40 days after transplanting. Tumor tissues were isolated and fixed in 10% formalin. The lungs were fixed in 10% Bouin's fixative and lung metastatic nodules on the surface were counted using a stereomicroscope (Optimax; Leica).

Data set [3] has as its system breast cancer cell lines MDA-MB-231, BT20, MDA-MD468, 4T1, MCF-7, SKBR3. The data set can be described thus: Colony formation assay (long-term cell viability). Type of data set: cell-based. The settings on record: MDA-MB-231, BT20, MDA-MD468, 4T1, MCF-7 (ER+, PR+), SKBR3 (Her2+); FIG. 1B. The protocol:
The long-term effects of SLLN-15 on tumor cell growth were assessed using the colony formation assay. Cells were trypsinized and plated in triplicate wells in 12-well plate (500 cells/well). After six hours of incubation, cells were treated with the indicated concentrations of SLLN-15 or DMSO. 7 days after the cells plated and treated, they were washed and stained with a mixture of 0.05% w/v crystal violet and 6% v/v glutaraldehyde, and the colonies >100 μm in diameter were counted using a colony counter (Oxford Optronix Gelcount, Inc., Milton Park, Abingdon, UK).

In data set [4] the test system is MDA-MB-231 and BT-20 cells. Description: Light microscopy of cell morphology. Type of data set: cell-based. To be noted: compared to control cells; more detached and shrunken cells. From the text: FIG. S1 represents the cell morphological changes of MDA-MB-231 and BT-20 upon SLLN-15 treatment as visualized by light microscopy.
Within our quest to develop effective novel anti-cancer drug for TNBCs, we designed and synthesized a library of compounds derived from seleno-purine scaffolds. A high-throughput screening of major classes of kinases and enzymes involved in carcinogenesis identified a 4-selenomorpholinophenyl- and tetrahydroselenophene-substituted diamino-purines, namely SLLN-15 (FIG. 1A), as a potent small molecule capable of inhibiting TNBC cells. […] Subsequent cell-based assays confirmed this small molecule to inhibit the proliferation of two TNBC cell lines, BT-20 and MDA-MB-231.

The test system of data set [5] is breast cancer stem-like cells (BCSCs), ALDHhigh and CD24low/CD44high. Description: Anti-stemness activity in breast cancer stem-like cells. It is filed as cell-based.
Description: as §1

The subject of data set [6] is MDA-MB-231-M2 or 4T1 tumors. The data set can be described thus: In vivo anti-metastatic activity in tumor-bearing mice.
Description: as §1

Take `c1nc2nc(Nc3ccc(N4CC[Se]CC4)cc3)nc(N[C@H]3CC[Se]C3)c2[nH]1` [SLLN-15]: the “expression level of p62/SQSTM1, Beclin1, Atg5 and Atg7” value in data set [1] (FIG. S2) was “no changes in their expression levels were observed”. For the same compound, the “autophagic flux, mCherry-GFP-tagged LC3” value in data set [1] (MDA-MB-231 and BT-20 cells, FIGS. 3A and B) is “increased formation of yellow fluorescence (autophagosomes) and red fluorescence (autophagolysosomes)”. Further, in data set [1] (SLLN-15 combined with chloroquine (CQ), compared to SLLN-15 alone, FIG. 3C), the LC3-II/LC3-I ratio result is “enhanced LC3-II/LC3-I ratio”. Further, in data set [1] (combination of SLLN-15 with 3-methyladenine (3-MA), FIG. 5C), the LC3-II/I ratio result was “significantly decreases LC3-II/I ratio”. Besides, the “LC3-II conversion and LC3 puncta” value in data set [1] (dose-dependent, FIGS. 2A and B) is “increased LC3-II conversion and LC3 puncta”. For the same compound, the tolerability result in the data set “In vivo tolerability” was “well-tolerated”. For the same compound, the tumor volumes entry in data set [2] (30 mg/kg given PO, compared to vehicle, FIG. 1D) is listed as “reduced”. Also, in data set [2] (30 mg/kg given PO, compared to vehicle, FIG. 1E), the tumor weights entry is “reduced”. In addition, the “tumor allograft growth rate” value in data set [2] (30 mg/kg given PO, compared to vehicle, FIGS. 1D and E) was “grew at a slower rate”. Moreover, the “number of lung metastases” value in data set [2] (compared with vehicle-treated animals, FIG. 1F) is reported as “significant inhibition of the number of lung metastases”. For the same compound, the colony formation abilities result in data set [3] was “equally inhibit the colony formation abilities”. The cell morphology entry in data set [4] is reported as “induced obvious morphological changes”. Also, in data set [5] (FIGS. 8A and 8B), the centrosomes clustering result is recorded as “interferes with centrosomes clustering”. For the same compound, the cell locomotion entry in data set [5] (MDA-MB-231, sorted BCSC subpopulation, concurrent inhibition of focal adhesion kinase signaling) is listed as “induced loss of cell locomotion”. Also, the “BCSC-marker expression, tumorspheres formation, STAT3 activation, mitotic spindle assembly” value in data set [5] (SLLN-15-treated cells) is “reduced BCSC-marker expression, tumorspheres formation, STAT3 activation and defective mitotic spindle assembly”. Also, in data set [6] (mice bearing MDA-MB-231-M2 or 4T1 tumors, administered intraperitoneally), the anti-metastatic activity result is recorded as “significant anti-metastatic activity”. For the same compound, in data set [6] (pretreatment ex vivo prior to mouse implantation), the “MDA-MB-231-M2 progression to metastasis” value is recorded as “significantly attenuated”.
